The source of these data is patent publication US6878722B2, “Substituted cycloalkyl P1′ hepatitis C virus inhibitors” (Bristol-Myers Squibb Company, priority 2002, dated 2005).

What all share (type): biochemical
In experiment [1] the target is T1, HCV NS3/4A protease complex (H77C strain, 1a genotype) (Hepatitis C virus genotype 1a, UniProt P27958, C1454S).
T1 construct: DNA encoding the recombinant HCV NS3/4A protease complex (amino acids 1027 to 1711) for these strains; inferred from the pET21b vector and Ni-NTA purification; made in house; host or cells: Escherichia coli BL21 (DE3), pET21b
Nature of the experiment: Recombinant HCV NS3/4A protease complex FRET peptide assay, H77C strain. The text has this: (§1) The purpose of this in vitro assay was to measure the inhibition of HCV NS3 protease complexes, derived from the BMS, H77C or J416S strains, as described below, by compounds of the present invention.
(§2) Serum from an HCV-infected patient was obtained from Dr. T. Wright, San Francisco Hospital. An engineered full-length cDNA (compliment deoxyribonucleic acid) template of the HCV genome (BMS strain) was constructed from DNA fragments obtained by reverse transcription-PCR (RT-PCR) of serum RNA (ribonucleic acid) and using primers selected on the basis of homology between other genotype 1a strains. […] The infectious clones, H77C (1a genotype) and J4L6S (1b genotype) were obtained from R. Purcell (NIH) and the sequences are published in Genbank (AAB67036, see Yanagi,M., Purcell,R. H., Emerson,S. U. and Bukh,J. Proc. Natl. Acad. Sci. U.S.A. 94(16),8738-8743 (1997); AF054247, see Yanagi,M., St Claire,M., Shapiro,M., Emerson,S. U., Purcell,R. H. and Bukh,J, Virology 244 (1), 161-172. (1998)).
(§3) The BMS, H77C and J4L6S strains were used for production of recombinant NS3/4A protease complexes. DNA encoding the recombinant HCV NS3/4A protease complex (amino acids 1027 to 1711) for these strains were manipulated as described by P. Gallinari et al. (see Gallinari P, Paolini C, Brennan D, Nardi C, Steinkuhler C, De Francesco R. Biochemistry. 38(17):5620-32, (1999)). […]

Experiment [2] deals with T2, HCV NS3/4A protease complex (J4L6S strain, 1b genotype) (Hepatitis C virus genotype 1b, UniProt O92972, C1454S/C1711G).
T2 construct: DNA encoding the recombinant HCV NS3/4A protease complex (amino acids 1027 to 1711) for these strains; inferred from the pET21b vector and Ni-NTA purification; made in house; host or cells: Escherichia coli BL21 (DE3), pET21b
Nature of the experiment: Recombinant HCV NS3/4A protease complex FRET peptide assay, J4L6S strain.
Excerpt: as §1, §2, §3

The target of experiment [3] is T3, porcine pancreatic elastase (PPE) (Sus scrofa, UniProt P00772).
T3 construct: purchased Sigma
Nature of the experiment: Specificity assay, porcine pancreatic elastase. Particulars: 2 hr pre-incubation. As for the experimental part: (§4) The specificities of compounds of the present invention were determined against a variety of serine proteases: human sputum elastase (HS), porcine pancreatic elastase (PPE) and human pancreatic chymotrypsin and one cysteine protease: human liver cathepsin B. In all cases a 96-well plate format protocol using colorimetric p-nitroaniline (pNA) substrate specific for each enzyme was used as described previously (Patent WO 00/09543) with some modifications to the serine protease assays. All enzymes were purchased from Sigma while the substrates were from Bachem.
(§5) Each assay included a 2 hr enzyme-inhibitor pre-incubation at room temperature followed by addition of substrate and hydrolysis to ˜30% conversion as measured on a Spectramax Pro microplate reader. Compound concentrations varied from 100 to 0.4 μM depending on their potency. […]
(§6) The percentage of inhibition was calculated using the formula: [1−((UVinh−UVblank)/(UVctl−UVblank))]×100 […]

Experiment [4] has as its system human pancreatic chymotrypsin. Nature of the experiment: Specificity assay, chymotrypsin. Particulars: 2 hr pre-incubation. As for the experimental part:
as §4, §5, §6

For a further experiment, the target named is T4, human liver cathepsin B (Homo sapiens, UniProt P07858).
T4 construct: purchased Sigma
Nature of the experiment: Specificity assay, cathepsin B. Conditions: 2 hr pre-incubation. As for the experimental part: as §4, §5, §6

T1 sequence (P27958 1027-1657 C1454S): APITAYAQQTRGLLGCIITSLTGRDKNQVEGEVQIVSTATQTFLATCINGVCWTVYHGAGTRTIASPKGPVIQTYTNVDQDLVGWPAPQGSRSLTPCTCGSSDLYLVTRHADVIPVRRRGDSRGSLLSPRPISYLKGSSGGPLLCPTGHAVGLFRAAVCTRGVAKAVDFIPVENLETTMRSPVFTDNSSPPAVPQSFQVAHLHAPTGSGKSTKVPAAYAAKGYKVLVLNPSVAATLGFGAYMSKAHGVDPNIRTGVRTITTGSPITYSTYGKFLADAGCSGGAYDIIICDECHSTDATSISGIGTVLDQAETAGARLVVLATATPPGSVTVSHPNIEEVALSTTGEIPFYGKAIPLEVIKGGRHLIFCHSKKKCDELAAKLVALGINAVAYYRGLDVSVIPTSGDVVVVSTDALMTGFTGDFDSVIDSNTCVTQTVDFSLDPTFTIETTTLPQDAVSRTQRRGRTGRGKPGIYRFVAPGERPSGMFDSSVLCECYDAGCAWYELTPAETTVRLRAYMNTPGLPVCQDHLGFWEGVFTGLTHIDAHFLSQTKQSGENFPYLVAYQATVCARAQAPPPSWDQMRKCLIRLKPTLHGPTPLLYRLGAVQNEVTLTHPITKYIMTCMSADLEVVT
T1 sequence (P27958 1658-1714 partner, looked up, stated change not applied): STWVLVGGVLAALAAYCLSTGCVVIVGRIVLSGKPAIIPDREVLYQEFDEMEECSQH
T2 sequence (O92972 1027-1711 C1454S/C1711G, one chain of several): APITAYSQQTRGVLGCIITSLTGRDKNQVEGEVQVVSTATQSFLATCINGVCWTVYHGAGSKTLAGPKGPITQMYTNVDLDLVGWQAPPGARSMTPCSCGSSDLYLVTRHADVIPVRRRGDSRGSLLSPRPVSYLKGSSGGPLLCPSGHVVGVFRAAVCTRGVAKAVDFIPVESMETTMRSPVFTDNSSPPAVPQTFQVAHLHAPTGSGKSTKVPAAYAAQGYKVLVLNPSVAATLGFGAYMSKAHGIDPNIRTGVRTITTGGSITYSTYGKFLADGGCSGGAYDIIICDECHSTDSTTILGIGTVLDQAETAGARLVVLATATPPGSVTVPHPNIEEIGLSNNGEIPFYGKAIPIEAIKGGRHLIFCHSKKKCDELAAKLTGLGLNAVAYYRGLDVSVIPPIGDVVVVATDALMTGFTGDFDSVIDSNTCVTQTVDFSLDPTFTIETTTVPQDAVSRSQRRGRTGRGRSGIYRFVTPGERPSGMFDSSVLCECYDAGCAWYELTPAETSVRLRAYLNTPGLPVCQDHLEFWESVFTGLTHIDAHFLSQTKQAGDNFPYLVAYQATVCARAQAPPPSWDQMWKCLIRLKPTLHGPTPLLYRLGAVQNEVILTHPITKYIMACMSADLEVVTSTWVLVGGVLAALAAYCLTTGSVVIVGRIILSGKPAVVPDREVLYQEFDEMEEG
T3 sequence (P00772 27-266): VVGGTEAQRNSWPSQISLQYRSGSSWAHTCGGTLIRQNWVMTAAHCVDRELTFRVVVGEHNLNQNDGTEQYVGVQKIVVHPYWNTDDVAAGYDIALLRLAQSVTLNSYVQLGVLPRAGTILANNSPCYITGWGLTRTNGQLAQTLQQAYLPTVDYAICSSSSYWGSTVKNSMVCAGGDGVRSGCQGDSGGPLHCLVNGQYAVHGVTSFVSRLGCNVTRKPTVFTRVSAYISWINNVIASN

Take `C=CC1C[C@]1(NC(=O)[C@@H]1C[C@@H](Oc2cc(-c3ccccc3)nc3cc(OC)ccc23)CN1C(=O)[C@@H](NC(=O)OC(C)(C)C)C(C)(C)C)C(=O)NS(=O)(=O)C1(C)CC1` (stereo in doubt) [Compound 1, (1-{4-(7-Methoxy-2-phenylquinolin-4-yloxy)-2-[1-(1-methylcyclopropanesulfonylaminocarbonyl)-2-vinylcyclopropylcarbamoyl]pyrrolidine-1-carbonyl}-2,2-dimethylpropyl)carbamic acid tert-butyl ester]: the IC50 is 1.2 nM in experiment [1]; 1.1 nM in experiment [2]; above 100000 nM in experiment [3]; above 100000 nM in experiment [4]; above 100000 nM on human liver cathepsin B.
